This assay concerns macrophages co-incubated with apoptotic KPLG cells. The experiment in a line: Chloroquine treatment of macrophages after co-incubation with apoptotic KPLG cells; recovery of tumor DNA from cell fractions. The format is cell-based, murine. How it is done:
FIG. 9A: Cytoplasmic DNA mass recovered from macrophages with or without 25 μM CQ treatment for 3 hours. FIG. 9B: Nuclear DNA mass recovered from macrophages with or without 25 μM CQ treatment for 3 hours. FIG. 9C: Cytoplasmic KRAS G12D to WT ratio. Apoptotic KPLG cells were washed away after 1 hour of co-incubation with macrophages before CQ treatment. FIG. 9D: Nuclear KRAS G12D to WT ratio. Apoptotic KPLG cells were washed away after 1 hour of co-incubation with macrophages before CQ treatment.
To test if pharmacologically blocking the DNA degradation pathway could lead to increased recovery of tumor DNA in macrophages, apoptotic KPLG cells were co-incubated with macrophage cells for 1 hour, after which apoptotic cells were washed away, and macrophages were treated either with or without 25 μM chloroquine.
Cell lines: KPLG cells were kindly provided by the Jacks Laboratory at the Massachusetts Institute of Technology (MIT). BMDM were harvested from femurs of wild-type […] mice and DNase 2a−/− mice. KPLG cells were cultured in DMEM supplemented with 10% fetal bovine serum (Gibco) and 1% penicillin/streptomycin (Corning); BMDM cells were cultured in DMEM supplemented with 10% fetal bovine serum (Gibco) and 1% penicillin/streptomycin (Corning), and 15% L929 conditioned medium. All cells were cultured in a humidified atmosphere of 95% air and 5% CO2 at 37° C. The KPLG cell line was declared pathogen free after being subjected to murine pathogen testing by the Diagnostic Laboratory of the Division of Comparative Medicine (MIT).
Cell fractionation and DNA extraction: Cells were collected by centrifugation at 3000×g for 7 min. The cells were lysed using four volumes of lysis buffer (20 mM Tris-HCl, pH 7.4, 10 mM KCl, 2 mM MgCl2, 1 mM DTT, and 1 mM EDTA) for 20 min. on ice. The nuclear pellet was collected by centrifugation twice at 800×g for 5 min. The mitochondrial fraction was collected by centrifugation twice at 10,000×g for 10 min. The collected supernatant was used as the cytoplasmic fraction. […]

1 compound from patent US20240182948A1, “METHODS AND COMPOSITIONS FOR DETECTION OF TUMOR DNA” (The Broad Institute, Inc., priority 2021, published 2024) can be followed below.

The structures appear in SMILES notation.

Turning to `CCN(CC)CCCC(C)Nc1ccnc2cc(Cl)ccc12` (stereo not drawn) [Chloroquine, chloroquine], the “digestion of cytoplasmic tumor-derived DNA by macrophages” value (25 μM CQ treatment for 3 hours, legend of FIGS. 9A-9D) is “inhibits digestion”. In addition, the “total cytoplasmic DNA mass recovered from macrophages” value (25 μM chloroquine vs. no treatment, apoptotic KPLG cells washed away after 1 hour of co-incubation, FIG. 9A: treatment for 3 hours) was “increase”. In addition, the “presence of KRAS G12D in the cytoplasmic DNA fraction of macrophages (KRAS G12D to WT ratio)” value (25 μM chloroquine vs. no treatment, apoptotic KPLG cells washed away after 1 hour of co-incubation, TaqMan qPCR) was “increase”.
